Drawing on patent publication US9458154B2, “Kinase inhibitors” (Chiesi Farmaceutici S.p.A., priority 2011, dated 2016), this text covers IC50 for 24 molecules.

The assay addresses T1, p38alpha (Homo sapiens, UniProt Q16539).
T1 construct: purchased Invitrogen PV3304
Kind of assay: P38alpha Enzyme Inhibition Assay (Alphascreen kinase activity assay). The format is biochemical. The conditions noted are these: 100 pM p38alpha, ATF-2 fusion protein substrate, 250 μM ATP, 2 hours preincubation at 25° C.; read-out: p38α inhibition. The protocol:
P38alpha Enzyme Inhibition Assay
The inhibitory activity of compounds was determined using an Alphascreen® (Perkin Elmer) based kinase activity assay. Kinase reactions consisted of 25 mM HEPES pH 7.5, 10 mM MgCl2, 100 μM Na3VO4, 2 mM DTT, 0.05 mg/ml Tween 20, 100 pM p38alpha (Invitrogen, PV3304), 1% DMSO and 0.3 μg/ml ATF-2 fusion protein (New England Biolabs, 9224). Compounds were incubated under these conditions for 2 hours, at 25° C., prior to the initiation of the kinase activity by the addition of the 250 μM ATP. Reaction volumes were 20 uL. After 1 hr at 25° C. reactions were stopped by the adding 10 uL of 25 mM HEPES pH 7.5 containing 62.5 mM EDTA, 0.05% Triton X-100, 10% BSA and 0.83 ng/uL anti-phospho-ATF2 antibody (Abcam, ab28812). Detection was performed by measuring luminescence following the addition of Alphascreen Donor beads (Perkin Elmer 6765300) and Protein A Alphascreen Acceptor beads (Perkin Elmer 6760137), both at a final concentration of 20 ug/ml. IC50 values were determined from concentration-response curves.
(Bead proximity is the source of the signal in Alpha formats.)

Counter-ions that a name gives are not always drawn.

T1 sequence (Q16539 whole entry): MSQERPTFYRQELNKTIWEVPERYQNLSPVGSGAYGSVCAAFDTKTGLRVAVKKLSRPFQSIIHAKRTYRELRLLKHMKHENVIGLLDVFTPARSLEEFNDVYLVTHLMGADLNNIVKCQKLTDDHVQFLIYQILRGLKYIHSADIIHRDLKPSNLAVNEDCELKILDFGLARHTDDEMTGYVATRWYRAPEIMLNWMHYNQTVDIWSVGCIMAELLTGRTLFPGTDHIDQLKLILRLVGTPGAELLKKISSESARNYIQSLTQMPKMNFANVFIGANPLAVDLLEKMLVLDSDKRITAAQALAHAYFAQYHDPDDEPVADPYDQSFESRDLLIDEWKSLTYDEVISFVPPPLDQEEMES

With `Cc1ccc(-n2nc(C(C)(C)C)cc2NC(=O)N[C@@H]2C[C@@H](Sc3ccc4nnc(C(C)C)n4c3)c3ccccc32)cc1` (racemic) [Example 3, (±)-trans-1-(5-tert-Butyl-2-p-tolyl-2H-pyrazol-3-yl)-3-[3-(3-isopropyl-[1,2,4]triazolo[4,3-a]pyridin-6-ylsulfanyl)-indan-1-yl]-urea], the IC50 was under 10 nM.

For the molecule `CC(C)c1nnc2ccc(O[C@@H]3CC[C@H](NC(=O)Nc4cc(C(C)(C)C)nn4-c4ccccc4)c4ccccc43)cn12` [Example 1, 1-(5-tert-Butyl-2-phenyl-2H-pyrazol-3-yl)-3-[(1S,4R)-4-(3-isopropyl-[1,2,4]triazolo[4,3-a]pyridin-6-yloxy)-1,2,3,4-tetrahydro-naphthalen-1-yl]-urea], the IC50 is under 10 nM.

On to `CC(C)c1nnc2ccc(O[C@H]3CC[C@H](NC(=O)NC4CC4)c4ccccc43)cn12` [Example 2, 1-Cyclopropyl-3-[(1S,4S)-4-(3-isopropyl-[1,2,4]triazolo[4,3-a]pyridin-6-yloxy)-1,2,3,4-tetrahydro-naphthalen-1-yl]-urea], for which the IC50 was under 10 nM.

`Cc1ccc(-n2nc(C(C)(C)C)cc2NC(=O)N[C@H]2CC[C@@H](Oc3ccc4nnc(-c5cccc(OCCN6CCOCC6)c5)n4c3)c3ccccc32)cc1` [Example 4, 1-(5-tert-Butyl-2-p-tolyl-2H-pyrazol-3-yl)-3-[(1S,4R)-4-{3-[3-(2-morpholin-4-yl-ethoxy)-phenyl]-[1,2,4]triazolo[4,3-a]pyridin-6-yloxy}-1,2,3,4-tetrahydro-naphthalen-1-yl)-urea]: the IC50 was under 10 nM.

Regarding `Cc1ccc(-n2nc(C(C)(C)C)cc2NC(=O)N[C@H]2CC[C@@H](Oc3ccn4c(C(C)C)nnc4c3)c3ccccc32)cc1` [Example 5, 1-(5-tert-Butyl-2-p-tolyl-2H-pyrazol-3-yl)-3-[(1S,4R)-4-(3-isopropyl-[1,2,4]triazolo[4,3-a]pyridin-7-yloxy)-1,2,3,4-tetrahydro-naphthalen-1-yl]-urea], the IC50 was under 10 nM.

Consider `CC(C)c1nnc2ccc(O[C@@H]3CC[C@H](NC(=O)Nc4cc(C(C)(C)C)nn4-c4cccc(OCCN5CCOCC5)c4)c4ccccc43)cn12` [Example 6, 1-{5-tert-Butyl-2-[3-(2-morpholin-4-yl-ethoxy)-phenyl]-2H-pyrazol-3-yl}-3-[(1S,4R)-4-(3-isopropyl-[1,2,4]triazolo[4,3-a]pyridin-6-yloxy)-1,2,3,4-tetrahydro-naphthalen-1-yl]-urea], for which the IC50 was under 10 nM.

On to `Cc1ccc(-n2nc(C(C)(C)C)cc2NC(=O)N[C@H]2CC[C@@H](Oc3ccc4nnc(-c5ccccc5O)n4c3)c3ccccc32)cc1` [Example 7, 1-(5-tert-Butyl-2-p-tolyl-2H-pyrazol-3-yl)-3-{(1S,4R)-4-(3-(2-hydroxy-phenyl)-[1,2,4]triazolo[4,3-a]pyridin-6-yloxy)-1,2,3,4-tetrahydro-naphthalen-1-yl}-urea], for which the IC50 is under 10 nM.

With `CC(C)c1nnc2ccc(O[C@H]3C[C@H](NC(=O)Nc4cc(C(C)(C)C)on4)c4ccccc43)cn12` [Example 8, 1-(5-tert-Butyl-isoxazol-3-yl)-3-[(1S,3S)-3-(3-isopropyl-[1,2,4]triazolo[4,3-a]pyridin-6-yloxy)-indan-1-yl]-urea], the IC50 was under 10 nM.

Consider `COCC(=O)Nc1cc(CO[C@@H]2CC[C@H](NC(=O)Nc3cc(C(C)(C)C)nn3-c3ccc(C)cc3)c3ccccc32)ccn1` [Example 9, N-(4-{(1R,4S)-4-[3-(5-tert-Butyl-2-p-tolyl-2H-pyrazol-3-yl)-ureido]-1,2,3,4-tetrahydro-naphthalen-1-yloxymethyl}-pyridin-2-yl)-2-methoxy-acetamide], for which the IC50 is under 10 nM.

As to `Cc1ccc(-n2nc(C(C)(C)C)cc2NC(=O)N[C@H]2CC[C@@H](Oc3ccc4nnc(-c5ccccc5SCCO)n4c3)c3ccccc32)cc1` [Example 10], the IC50 was under 10 nM.

Regarding `CC(C)c1nnc2ccc(O[C@@H]3CC[C@H](NC(=O)Nc4cc(C(C)(C)C)nn4-c4cccc(OCCN(C)C)c4)c4ccccc43)cn12` [Example 11, 1-{5-tert-Butyl-2-[3-(2-dimethylamino-ethoxy)-phenyl]-2H-pyrazol-3-yl}-3-[(1S,4R)-4-(3-isopropyl-[1,2,4]triazolo[4,3-a]pyridin-6-yloxy)-1,2,3,4-tetrahydro-naphthalen-1-yl]-urea], the IC50 was under 10 nM.

With `CC(C)c1nnc2ccc(O[C@@H]3CC[C@H](NC(=O)Nc4cc(C(C)(C)C)nn4-c4ccc(O)c(Cl)c4)c4ccccc43)cn12` [Example 12, 1-[5-tert-Butyl-2-(3-chloro-4-hydroxy-phenyl)-2H-pyrazol-3-yl]-3-[(1S,4R)-4-(3-isopropyl-[1,2,4]triazolo[4,3-a]pyridin-6-yloxy)-1,2,3,4-tetrahydro-naphthalen-1-yl]-urea], the IC50 is under 10 nM.

Turning to `CC(C)c1nnc2ccc(O[C@@H]3CC[C@H](NC(=O)NC4CC4)c4ccccc43)cn12` [Example 13, 1-Cyclopropyl-3-[(1S,4R)-4-(3-isopropyl-[1,2,4]triazolo[4,3-a]pyridin-6-yloxy)-1,2,3,4-tetrahydro-naphthalen-1-yl]-urea], the IC50 fell in the range of 10 to 100 nM.

Take `CC(C)c1nnc2ccc(O[C@@H]3CC[C@H](NC(=O)Nc4cc(C(C)(C)C)nn4-c4ccc(Cl)c(O)c4)c4ccccc43)cn12` [Example 14, 1-(5-tert-Butyl-2-(4-chloro-3-hydroxyphenyl)-2H-pyrazol-3-yl)-3-[(1S,4R)-4-(3-isopropyl-[1,2,4]triazolo[4,3-a]pyridin-6-yloxy)-1,2,3,4-tetrahydronaphthalen-1-yl]-urea]: the IC50 is under 10 nM.

Consider `CC(C)c1nnc2ccc(O[C@@H]3CC[C@H](NC(=O)Nc4cc(C(C)(C)C)nn4-c4ccc(O)cc4)c4ccccc43)cn12` [Example 15, 1-[5-tert-Butyl-2-(4-hydroxy-phenyl)-2H-pyrazol-3-yl]-3-[(1S,4R)-4-(3-isopropyl-[1,2,4]triazolo[4,3-a]pyridin-6-yloxy)-1,2,3,4-tetrahydro-naphthalen-1-yl]-urea], for which the IC50 was under 10 nM.

Regarding `Cc1ccc(-n2nc(C(C)(C)C)cc2NC(=O)N[C@H]2CC[C@@H](Oc3ccc4nnc(C(C)(C)C)n4c3)c3ccccc32)cc1` [Example 16, 1-(5-tert-Butyl-2-p-tolyl-2H-pyrazol-3-yl)-3-[(1S,4R)-4-(3-tert-butyl-[1,2,4]triazolo[4,3-a]pyridin-6-yloxy)-1,2,3,4-tetrahydro-naphthalen-1-yl]-urea], the IC50 is under 10 nM.

In the case of `CC(C)c1nnc2ccc(O[C@@H]3CC[C@H](NC(=O)Nc4cc(C(C)(C)C)on4)c4ccccc43)cn12` [Example 17, 1-(5-tert-Butyl-isoxazol-3-yl)-3-[(1S,4R)-4-(3-isopropyl-[1,2,4]triazolo[4,3-a]pyridin-6-yloxy)-1,2,3,4-tetrahydro-naphthalen-1-yl]-urea], the IC50 was under 10 nM.

For `Cc1ccc(-n2nc(C(C)(C)C)cc2NC(=O)N[C@H]2CC[C@@H](Oc3ccc4nnc(C5CCCC5)n4c3)c3ccccc32)cc1` [Example 18, 1-(5-tert-Butyl-2-p-tolyl-2H-pyrazol-3-yl)-3-[(1S,4R)-4-(3-cyclopentyl-[1,2,4]triazolo[4,3-a]pyridin-6-yloxy)-1,2,3,4-tetrahydro-naphthalen-1-yl]-urea], the IC50 was under 10 nM.

For the molecule `CC(C)c1nnc2ccc(O[C@@H]3CC[C@H](NC(=O)Nc4cc(C(C)(C)C)nn4-c4cccc(CN5CCOCC5)c4)c4ccccc43)cn12` [Example 19, 1-[5-tert-Butyl-2-(3-morpholin-4-ylmethyl-phenyl)-2H-pyrazol-3-yl]-3-[(1S,4R)-4-(3-isopropyl-[1,2,4]triazolo[4,3-a]pyridin-6-yloxy)-1,2,3,4-tetrahydro-naphthalen-1-yl]-urea, formic acid salt], the IC50 was under 10 nM.

On to `Cc1ccc(-n2nc(C(C)(C)C)cc2NC(=O)N[C@H]2CC[C@@H](Oc3ccc4nnc(-c5c(Cl)cccc5Cl)n4c3)c3ccccc32)cc1` [Example 20], for which the IC50 was under 10 nM.

In the case of `Cc1ccc(-n2nc(C(C)(C)C)cc2NC(=O)N[C@H]2CC[C@@H](Oc3ccc4nnc(C5CC5)n4c3)c3ccccc32)cc1` [Example 21, 1-(5-tert-Butyl-2-p-tolyl-2H-pyrazol-3-yl)-3-[(1S,4R)-4-(3-cyclopropyl-[1,2,4]triazolo[4,3-a]pyridin-6-yloxy)-1,2,3,4-tetrahydro-naphthalen-1-yl}-urea], the IC50 was under 10 nM.

For the molecule `Cc1ccc(-n2nc(C(C)(C)C)cc2NC(=O)N[C@H]2CC[C@@H](Oc3ccc4nnc(-c5ccccn5)n4c3)c3ccccc32)cc1` [Example 22, 1-(5-tert-Butyl-2-p-tolyl-2H-pyrazol-3-yl)-3-[(1S,4R)-4-(3-pyridin-2-yl-[1,2,4]triazolo[4,3-a]pyridin-6-yloxy)-1,2,3,4-tetrahydro-naphthalen-1-yl}-urea], the IC50 was under 10 nM.

Regarding `Cc1ccc(-n2nc(C(C)(C)C)cc2NC(=O)N[C@H]2CC[C@@H](Oc3ccc4nnc(-c5ccccc5Cl)n4c3)c3ccccc32)cc1` [Example 23], the IC50 is under 10 nM.

In the case of `Cc1ccc(-n2nc(C(C)(C)C)cc2NC(=O)N[C@H]2CC[C@@H](Oc3ccc4nnc(-c5ccccc5OCc5ccccc5)n4c3)c3ccccc32)cc1` [Example 24, 1-{(1S,4R)-4-[3-(2-Benzyloxy-phenyl)-[1,2,4]triazolo[4,3-a]pyridin-6-yloxy)-1,2,3,4-tetrahydro-naphthalen-1-yl}-3-(5-tert-butyl-2-p-tolyl-2H-pyrazol-3-yl)-urea], the IC50 is under 10 nM.
